Assay results: patent US20260069606A1, “Oxidative Stress and Diabetes Treatment with Cobinamide” (The Regents of the University of California, priority 2022, published 2026)
Values joined by “and” are separate entries in the source; they are usually repeats but may differ in a detail not shown here. Equal values may be shown once. Read-outs that look alike come from different tables or passages of the source.

Columns and labels:
[1] = even on exposure to air
Experimental: H9c2 cells were incubated for 30 min with vehicle, 2.5 μM cobinamide, or 5 μM rotenone, the latter in the absence or presence of 2.5 μM cobinamide, imisopasem, MnTBAP, or cobalamin; 5 μM MitoSOX was added during the last 10 min. The cells were incubated with 1 mg/ml DAPI for 3 min to counterstain nuclei, and then visualized under a fluorescence microscope. […] Equal-sized representative areas for each condition are shown for MitoSOX staining (red fluorescence) and the same area showing merged MitoSOX and DAPI staining. […] The amount of red fluorescence was quantified by Image J analysis. Data are the mean±SD of three independent experiments; in each experiment two separate equal-sized areas were analyzed containing ˜75 cells per area. […] H9c2 cells were incubated for 10 min with 10 μM JC-1, washed once with PBS, and then incubated for 30 min with vehicle, 2.5 μM cobinamide, or 5 μM rotenone in the absence or presence of 2.5 μM of the indicated drugs as described in Panels A, B. FIG. 3C. Cells were visualized under a fluorescence microscope and equal-sized representative areas of each condition are shown, with red and green fluorescence shown for the same area. […] The amount of red and green fluorescence was quantified by Image J analysis and the red to green ratio was calculated. The slides were analyzed by an operator who was blinded to the specific conditions. Data are the mean±SD of three independent experiments; in each experiment two separate equal-sized areas were analyzed containing ˜75 cells per area. […] Blots from four independent experiments were analyzed by densitometric scanning (Li-Cor Odyssey software) in a range where band intensity was linear. The ratio of the pJNK band to GAPDH was calculated, and the results normalized to control untreated cells. […] The UV-visible spectrum of Chi(III) in 50 mM potassium phosphate buffer, pH 7.4 was recorded before (black line) and immediately after adding a three-fold molar excess of ascorbate (blue line), cysteine (teal line), or reduced glutathione (GSH, pink line). […]

[2] = Reaction with peroxynitrite, stopped-flow; format: biochemical
Experimental: (§1) FIGS. 2A-2F. Cobinamide Functions as a Catalase Mimetic and Reacts with Peroxynitrite. […]. Hydrogen peroxide (final concentration 50 μM) was added to solutions containing increasing concentrations of Chi(III) (FIG. 2A) or Chi(II) (FIG. 2C), and the H2O2 concentration was measured over time using a H2O2-specific electrode. The log of the velocity in the presence of Chi(III) (FIG. 2B) or Chi(II) (v) (FIG. 2D) over the velocity in their absence (Vo) is plotted against the log of their concentrations at 20 min over their concentrations at zero time. These plots yield a reaction order with respect to Chi(III) and Cbi(II) of 0.7. The experiments were repeated three times with similar results. Dotted lines show 95% confidence intervals. FIG. 2E. […] The Chi(III) spectra are slightly different from those shown in FIG. 1G because at pH 11, dihydroxo-cobinamide is generated, whereas at pH 7.1, aquohydroxo-cobinamide is the predominant species. The spectra of aquohydroxo- and dihydroxo-cobinamide are known to be different^65. FIG. 2F. Varying concentrations of Chi(II) from 1 to 10 μM were mixed with 10 μM peroxynitrite in a stopped-flow instrument, and absorption at 315 nm was monitored for 0.5 sec. The results for 5 μM Cbi(II) are shown; red circles are the observed data, and the black line is a two-phase non-linear regression curve generated by Prism 7.04 software. […] The experiment was repeated three times with similar results. Dotted lines show 95% confidence intervals.
Table I. Reaction Rates of Cobinamide (Cbi), Cobalamin, Imisopasem, and MnTBAP with Reactive Oxygen and Nitrogen Species. Reactions of the indicated compounds with O2·^−, ONOO^−, and ·NO are all second order reactions with rate constants in units of M^−1 s^−1. The reactions of Cbi(III) and Cbi(II) with H2O2 are third order with rate constant units of M^−2 s^−1. […] For the new data presented in this study, rate constants were measured for O2·^− using a hypoxanthine-xanthine oxidase-cytochrome c system, for H2O2 using a H2O2-specific sensor (World Precision Instruments), and for ONOO^− using a stopped-flow instrument. […]

[3] = Reaction with superoxide, hypoxanthine-xanthine oxidase-cytochrome c reduction system; format: biochemical; details: for Apparent rate constant, reaction with superoxide (O2·^−): second order, hypoxanthine-xanthine oxidase-cytochrome c system, new data of this study
Experimental: FIGS. 1A-1G. Cobinamide Functions as a Superoxide Dismutase Mimetic. FIGS. 1A-1B. Chemical structures of aquohydroxo-cobinamide (FIG. 1A) and hydroxo-cobalamin (FIG. 1B). FIGS. 1C, 1E. Increasing concentrations of Chi(III) (FIG. 1C) or Chi(II) (FIG. 1E) were incubated in a hypoxanthine-xanthine oxidase-cytochrome c-catalase system for measuring O2·^−, with the change in absorbance at 550 nm (ΔAbs) plotted versus time. A no substrate (no hypoxanthine) control was included. FIGS. 1D, 1F. The calculated rate of change of absorbance at 550 nm in the absence of Chi(III) or Chi(II) (Vo) divided by the calculated rate in their presence (v) is plotted against the Chi(III) (FIG. 1D) or Chi(II) (FIG. 1F) concentration, respectively. The slope of the fitted line was used to calculate the apparent rate constant according to the following equation: kCbi=slope×kcytochrome c×[cytochrome c], where kcytochrome c=1.4×10^6 M^−1 s^−1 and [cytochrome c]=70 μM^70. The data shown are the mean of duplicate samples from one experiment, with similar results found in two additional experiments. Dotted lines show 95% confidence intervals. FIG. 1G. A 20 μM solution of Chi(III) in DMSO was scanned from 280 to 600 nm yielding the spectrum shown as a black line. An equimolar amount of […] (KO2) dissolved in dimethyl sulfoxide (DMSO) was added and the solution was scanned immediately, yielding the grey line. […] The experiment was conducted three times with identical results.
(§2) Table I. Reaction Rates of Cobinamide (Cbi), Cobalamin, Imisopasem, and MnTBAP with Reactive Oxygen and Nitrogen Species. Reactions of the indicated compounds with O2·^−, ONOO^−, and ·NO are all second order reactions with rate constants in units of M^−1 s^−1. The reactions of Cbi(III) and Cbi(II) with H2O2 are third order with rate constant units of M^−2 s^−1. Chi(II) and cobalamin(II) bind nitric oxide, so a Ka is shown in units of M^−1. For the new data presented in this study, rate constants were measured for O2·^− using a hypoxanthine-xanthine oxidase-cytochrome c system, for H2O2 using a H2O2-specific sensor (World Precision Instruments), and for ONOO^− using a stopped-flow instrument. Published rate constants for Cu/Zn and Mn superoxide dismutases (SOD) and catalase are shown for reference.^a,b Letters and numbers in parenthesis refer to footnotes and references, respectively.
The reaction of cobinamide with O2·^− was studied in two different systems, generating O2·^− using a hypoxanthine-xanthine oxidase system.
The first system contained 100 μM hypoxanthine and 0.1 unit xanthine oxidase in 20 mM sodium phosphate buffer, pH 7.1. The amount of O2·^− was measured by following reduction of ferric-cytochrome c (70 μM) at 550 nm as described previously^65. Catalase was included (32 units per sample), because xanthine oxidase generates both O2·^− and H2O2, and the latter can re-oxidize the ferro-cytochrome c product^34,66. The reaction was followed for 10 min. A no substrate blank lacking hypoxanthine was included.
In both systems, the experiments were conducted in the absence and presence of the indicated concentrations of Cbi(III) or Chi(II) 65.
Catalase was included in the reaction mixture, because the hypoxanthine-xanthine oxidase system also generates H2O2 and the latter can oxidize the ferro-cytochrome c product back to ferric-cytochrome c, thereby interfering with the kinetic measurement^34.

[4] = system: Jun N-terminal kinase (JNK) phosphorylation in H9c2 cells; experiment: H2O2-induced JNK phosphorylation, immunoblotting; format: cell-based, rat; details: for JNK phosphorylation in H2O2-treated cells: H9c2, 100 μM H2O2 30 min, drugs at 100 μM
Text: (§3) FIGS. 3A-3H. […] FIGS. 3A-3B. […] FIG. 3A. […] FIG. 3B. […] FIGS. 3C-3D. […] FIG. 3D. […] FIGS. 3E-3F. […] FIG. 3E. Representative blots are shown. […] FIG. 3F. […] FIG. 3G. […] FIG. 3H.

[5] = literature values, cited from earlier work; for Rate constant, reaction with nitric oxide (·NO), published: second order
[6] = Reaction with hydrogen peroxide, H2O2-specific electrode; format: biochemical
Experimental: as §1, §2
Both Cbi(III) and Chi(II) react with H2O2, and the reaction was essentially first order with respect to Cbi(III) and Cbi(II) (FIG. 2A-D), and second order with respect to H2O2 for both cobinamide species. […]

COS-7 cells = system: COS-7 cells
Experimental: as §3
Finally, whether cobinamide could alleviate the effects of oxidative stress induced by yet another mechanism in a different cell type was tested using paraquat-treated COS-7 cells. Paraquat generates O2·^− through a redox cycling mechanism and increases both intracellular O2·^− and H2O2^42.

[7] = second order; literature values; cited from earlier work
[8] = second order; literature values; cited from earlier work; remark: listed apart in the source
[9] = system: H9c2 rat embryonal cardiomyocytes; experiment: Mitochondrial superoxide content, MitoSOX Red fluorescence; format: cell-based; details: H9c2, 5 μM rotenone 30 min, drugs at 2.5 μM
Experimental: as §3
H9c2 cells were plated on glass cover slips in 24 well dishes, and 16 h later the medium was changed to phenol red-free DMEM supplemented with 20 mM Hepes, 0.1% fetal bovine serum, and 0.5% bovine serum albumin. […] MitoSOX Red is a dihydroethidium derivative containing triphenyl-phosphonium, which localizes it to respiring mitochondria. Its reaction with O2·^− yields 2-hydroxy-mitoethidium (2-OH-Mito-E″), whereas its reaction with other oxidative species yields mitoethidium (Mito-E^+)^67. These two oxidative derivatives have overlapping fluorescence spectra, but they can be distinguished by high performance liquid chromatography (HPLC)^68. Rotenone increased 2-OH-Mito-E^+ about two-fold, without increasing Mito-E^+. Thus, any increased fluorescence observed on treating cells with rotenone could be ascribed to an increase in 2-OH-Mito-E^+, and decreased fluorescence by an anti-oxidant in rotenone-treated cells was likely from a decrease in 2-OH-Mito-E^+.
(§4) The cells were then washed once with PBS, placed back in the DMEM experimental medium, and incubated with the indicated drugs for 30 min. At the end of the incubation period, nuclei of both the MitoSOX Red- and JC-1-treated cells were stained with […] 4′,6-diamidino-2-phenyl-indole (DAPI) for 3 min, washed once with PBS, and returned to the DMEM experimental medium. The cover slips were removed from the wells, mounted in the DMEM experimental medium, and red (MitoSOX Red and JC-1 aggregates), green (JC-1 monomers), and blue (DAPI) fluorescence intensity was assessed using a Keyence BZ-X700 fluorescence microscope at the following paired excitation/emission wavelengths, respectively: 560/630, 490/525, and 360/460 nm.
To assess if cobinamide reduces oxidative stress in cells and to compare its […] efficacy to that of cobalamin, imisopasem, and MnTBAP, several sets of experiments were performed. First, whether cobinamide reduces mitochondrial-generated O2·^− was evaluated using the fluorescent probe MitoSOX Red. H9c2 rat embryonal cardiomyocytes were treated with rotenone, an inhibitor of complex I, to increase mitochondrial O2·^−. […] Monitoring the UV-visible spectrum of cobinamide is a sensitive means to assess ligand binding^38.

H9c2 cells = experiment: Mitochondrial membrane potential, JC-1 red to green fluorescence; format: cell-based, rat; details: H9c2, 5 μM rotenone 30 min, drugs at 2.5 μM
Experimental: as §3, §4
Increased mitochondrial O2·^− by rotenone would be expected to reduce the mitochondrial membrane potential (ΔΨm), due in part to activation of uncoupling proteins^39. […] Rotenone caused an almost complete loss of red fluorescence and a striking increase in green fluorescence in the cells, indicating a marked decrease in ΔΨm (FIGS. 3C-3D).

D. melanogaster = experiment: Survival of fruit flies during paraquat poisoning; format: in vivo
Experimental: The number of live flies was counted each day for 7 d. The experiment was repeated seven times, for a total of 70 flies per condition. The percent surviving flies was calculated; error bars represent standard deviations and are shown in one direction only for sake of clarity. […] Chi, cobinamide in Panel A and histidyl-cobinamide in Panels B-K; Imp, imisopasem; MnTP, MnTBAP; CbL, cobalamin; DNPH, 2,4-dinitrophenylhydrazine; ND, non-diabetic; D, diabetic; Veh, vehicle.
To test cobinamide in a whole animal, D. melanogaster was selected for initial studies, and oxidative stressed was increased in the files by administering paraquat in their food. Cobinamide was again compared to imisopasem, MnTBAP, and hydroxocobalamin, all administered in food.

[10] = literature values; not strictly comparable with third-order constants; cited from earlier work

With `C/C1=C2/[N-][C@H]([C@H](CC(N)=O)[C@@]2(C)CCC(=O)NC[C@@H](C)O)[C@]2(C)N=C(/C(C)=C3N=C(/C=C4N=C1[C@@H](CCC(N)=O)C\4(C)C)[C@@H](CCC(N)=O)[C@]\3(C)CC(N)=O)[C@@H](CCC(N)=O)[C@]2(C)CC(N)=O.[Co]` [Cbi(II)] the “Persistence of the reduced state” value [1] was “remains in the reduced state for several hours”, the “Fold higher ONOO^− rate constant than MnTBAP” value ([2]; compared with published MnTBAP value) was > 50 fold and the “Fold higher ONOO^− rate constant than cobalamin(II)” value ([2]; compared with published cobalamin(II) value) was “more than 10 fold”. For the same compound, the “Apparent rate constant, reaction with peroxynitrite (ONOO^−)” value ([2]; second order, stopped-flow, 10 μM peroxynitrite, new data of this study) was 6.34×10^6 M^−1 s^−1 and 6.3 × 10^6 (^c) ^ M^−1 s^−1, the “Apparent rate constants, reaction with O2·^−” value ([3]; hypoxanthine-xanthine oxidase-cytochrome c reduction system, catalase included, exponent shared in the sentence) was 1.92e+08 M⁻¹ s⁻¹ and the “Apparent rate constant, reaction with superoxide (O2·^−)” value [3] was 1.9e+08 M⁻¹ s⁻¹. For the same compound, the “JNK phosphorylation in H2O2-treated cells” value [4] was “reduced JNK phosphorylation to a level that was indistinguishable from vehicle-treated cells”, the “JNK phosphorylation or total cellular JNK in the absence of H2O2” value ([4]; H9c2, drug alone) was “neither Cbi(III), Cbi(II) nor the other three drugs affected JNK phosphorylation” and the “Ka, binding of nitric oxide (·NO), published” value [5] was “Ka: 1.3 × 10^10 (51) M^−1”. For the same compound, the “Reaction order with respect to the cobinamide species in the reaction with H2O2” value ([6]; 50 μM H2O2) was 0.7 and the “Apparent rate constant, reaction with hydrogen peroxide (H2O2)” value ([6]; third order, H2O2-specific sensor, new data of this study) was 3.7 × 10^4 M^−2 s^−1.

In the case of `[Cl-].[Cl-].[Mn+2].c1cc2nc(c1)CN[C@@H]1CCCC[C@H]1NCCN[C@@H]1CCCC[C@H]1NC2` [Imisopasem, imisopasem manganese], the “Effect on cell growth of paraquat-treated cells” value (COS-7 cells; COS-7, 1 mM paraquat 3 h, 100 μM drug, counted 48 h later) is listed as “neither imisopasem nor MnTBAP had an effect”, the “Rate constant, reaction with superoxide (O2·^−), published” value [7] is listed as 1.6e+07 M⁻¹ s⁻¹ and the “Rate constant, reaction with peroxynitrite (ONOO^−), published” value [8] is listed as “No activity (26)”. For the same compound, the “JNK phosphorylation in H2O2-treated cells” value [4] was “small non-significant effects”, the “Rate constant, reaction with nitric oxide (·NO), published” value [5] was “No activity (26)” and the “MitoSOX red fluorescence in rotenone-treated cells” value [9] was “reduced the fluorescent signal substantially”. For the same compound, the “JC-1 red to green fluorescence ratio (ΔΨm) in rotenone-treated cells” value (H9c2 cells) was “modest degrees of recovery”, the “Effect on mortality of paraquat-exposed flies” value (D. melanogaster; 20 mM paraquat with 0.8 mM drug in food, over 7 d) was “no significant effect” and the “Rate constant, reaction with hydrogen peroxide (H2O2), published” value [10] was 8.2.

In the case of hydroxo-cobalamin, the “Effect on cell growth of paraquat-treated cells” value (COS-7 cells) was “improved cell growth”, the “Apparent rate constant, reaction with superoxide (O2·^−)” value [3] was 9.4e+06 M⁻¹ s⁻¹ and the “JNK phosphorylation in H2O2-treated cells” value [4] was “no effect”. The “Rate constant, reaction with nitric oxide (·NO), published” value [5] was “No activity (51, 71)”, the “MitoSOX red fluorescence in rotenone-treated cells” value [9] was “reduced the fluorescent signal substantially” and the “JC-1 red to green fluorescence ratio (ΔΨm) in rotenone-treated cells” value (H9c2 cells) was “modest degrees of recovery”. The “Effect on mortality of paraquat-exposed flies” value (D. melanogaster; in vivo) was “no significant effect” and the “Rate constant, reaction with hydrogen peroxide (H2O2), published” value [10] was 4.5 × 10^6.
